Laboratory results from US11135143B2, “Oral care compositions comprising tin ions” (The Procter & Gamble Company, priority 2020, dated 2021).

Experiments:
[1] = Solubility of tin ions (SnF2) in polyol solutions at various pH; format: physicochemical; details: for Appearance of polyol solution with stannous fluoride: every point above pH of 4; for Appearance of polyol solution with SnF2 (cloudy = formation of Sn(OH)2): pH 8-10, pH raised with NaOH
Method: Solubility of Tin Ions at a pH of Greater than 7
A 30% (w/w) solution was prepared for each polyol or combination of polyols was prepared using the appropriate amount of the pure polyol and deionized water. Next, 46 g of the 30% (w/w) polyol solution was placed in a 250 mL glass beaker with a stirring bar on top of a magnetic stirring apparatus. 21 g of deionized water was added to the glass beaker and the magnetic stirring apparatus was started to commence stirring of the solution. A pH electrode was connected to a pH meter (VWR Scientific, Model 9100, Radnor, Pa.) and the pH electrode (ThermoFisher Scientific, Orion 8165BNWP, Waltham, Mass.) was placed in the stirring polyol solution.
0.45 grams of a tin ion source, such as stannous fluoride, was added to the stirring polyol solution. The pH was recorded once the tin ion source was completely added. The pH of the solution was increased by dropwise addition of a 33% (w/w) solution of NaOH.
Solubility of Tin Ions at a pH of Less than 7
0.45 grams of a tin ion source, such as stannous fluoride, was added to the stirring polyol solution. The pH was recorded once the tin ion source was completely added. The pH of the solution was decreased by dropwise addition of a 33% (w/w) solution of HCl.
A solution that appeared cloudy indicated the formation of insoluble tin complexes. At a pH of greater than 7, a cloudy solution indicated the formation of Sn(OH)2. FIG. 1-6 illustrate TABLE 1 by showing the appearance of each solution described in TABLE 1.

[2] = system: Human gingival epithelial (HGE) cell; assay: Barrier protection analysis by real time cell analyzer (RTCA), impedance / Cell Index; format: cell-based; details: HGE cells
Method: Cell Culture Human gingival epithelial (HGE) cell was maintained in a 37° C. incubator with 5% CO2 saturation. Dulbecco's modified Eagle's medium (DMEM, Gibco) containing 10% fetal calf serum, 1% penicillin-streptomycin was used as the complete culture medium, which was changed every 2-3 days. Barrier Protection Analysis by Real Time Cell Analyzer (RTCA) The real time cell analyzer (RTCA) xCELLigence RTCA DP (ACEA Bioscience Inc., San Diego, Calif.) equipment, based on impedance measurement, was used to monitor the barrier protection of polyols. 50 μl complete culture medium was added to E-plates to obtain background readings, followed by the addition of 100 μl of the cell suspension. The E-plates containing 28000 cell/well were incubated at 37° C., 5% CO2 for 22-24 h until cells were confluent. The culture medium was changed to DMEM or DMEM with 1% of polyols, non reducing sugars or combinations and incubated at 37° C., 5% CO2 for 2 h. The barrier disruptor (capsaicin to a final concentration of 75 μM in this case) was added to wells of E-plate. Impedance as reflected by the Cell Index (CI) was recorded continuously for 16-24 h. The CI curve was normalized at the time point just before adding polyols. The normalized CI at 3 h after adding of barrier disruptor was compared to blank control to generate the percentage of barrier function % comprimisation.

[3] = pH 2-4, 30% (w/w) polyol solution diluted with water, 0.45 g stannous fluoride, pH lowered with HCl
[4] = DMEM with 1% polyol(s) for 2 h, then capsaicin 75 μM, normalized CI at 3 h after barrier disruptor compared to blank control (100%)

Row | Compound | Appearance of polyol solution with stannous fluoride [1] | Appearance of polyol solution with SnF2 (cloudy = formation of insoluble tin complexes) [1, 3] | Appearance of polyol solution with SnF2 (cloudy = formation of insoluble tin complexes) ([1]; pH 4-6) | Appearance of polyol solution with SnF2 (cloudy = formation of insoluble tin complexes) ([1]; pH 6-8) | Appearance of polyol solution with SnF2 (cloudy = formation of Sn(OH)2) [1] | Barrier Function [2, 4] | Barrier Function ([2]; DMEM with 1% polyol(s) for 2 h, then capsaicin 75 μM, normalized CI at 3 h after barrier disruptor compared to blank control (100%), listed as glycerin) | Barrier Function ([2]; barrier disruptor capsaicin 75 μM alone, no polyol, normalized CI at 3 h compared to blank control (100%)) | Barrier Function ([2]; barrier disruptor capsaicin 75 μM alone, no polyol, normalized CI at 3 h compared to blank control (100%), listed as capsaicin) | Barrier Function ([2]; DMEM with 1% polyol(s) for 2 h, then capsaicin 75 μM, normalized CI at 3 h after barrier disruptor compared to blank control (100%), listed as sorbitol)
1 | OC[C@H]1O[C@H](O[C@H]2O[C@H](CO)[C@@H](O)[C@H](O)[C@H]2O)[C@H](O)[C@@H](O)[C@@H]1O [Trehalose] | cloudy | clear | cloudy | cloudy | cloudy | 102% |  |  |  | 
2 | Isomalt | cloudy | clear | cloudy | cloudy | cloudy | 85% |  |  |  | 
3 | OCC(O)CO [Glycerin, reference compound] |  |  |  |  |  | 44% | 44% |  |  | 
4 | COc1cc(CNC(=O)CCCC/C=C/C(C)C)ccc1O [Capsaicin, capsaicin, reference compound] |  |  |  |  |  |  |  | 28% | 28% | 
5 | OC[C@@H](O)[C@@H](O)[C@H](O)[C@@H](O)CO [Sorbitol] |  | clear | cloudy | cloudy | clear | 46% |  |  |  | 46%
